Laboratory results as given in US8003691B2, “Antiviral and comma antibacterial pharmaceutical compositions of cantharidic anhydride and method of preparation thereof” (priority 2001, dated 2011).

Tests used:
[1] = Solubility of cantharidic anhydride in water, fat and essential oil; type: physicochemical
Experimental: In the pharmaceutical composition of the present invention, cantharidic anhydride is dissolved in essential oils or single constituent of essential oils to form cantharidic anhydride-essential oil preparation. The cantharidic anhydride has higher solubility in essential oil. […] That is to say, concentration of cantharidic anhydride in essential oil can be 14 times larger than that in fat and more than 200 time larger than that in water.

tubercule bacillus [2] = type: cell-based
staphylococcus = type: cell-based
virus = test: Minimum concentration for virus deactivation; type: cell-based
[3] = human, in vivo
tubercule bacillus [4] = details: reported in literature; cited from earlier work

SMILES	concentration of cantharidic anhydride in essential oil relative to that in fat ([1]; essential oil vs fat)	concentration of cantharidic anhydride in essential oil relative to that in water ([1]; essential oil vs water)	solubility in essential oil ([1]; in essential oil)	solubility in fat ([1]; in fat)	solubility of cantharidic anhydride in water ([1]; in water)	concentration in culture medium that can completely deactivate tubercule bacillus (tubercule bacillus [2])	concentration in culture medium that can completely deactivate staphylococcus (staphylococcus)	minimum concentration for virus deactivation (virus)	adverse reaction to liver and bone marrow [3]	minimum concentration for tubercule bacillus deactivation (tubercule bacillus [4])
C[C@@]12C(=O)OC(=O)[C@]1(C)[C@H]1CC[C@@H]2O1 [cantharidic anhydride, Cantharidic anhydride]	14 times	more than 200 time	≤ 0.7%	0.05%	approximately 0.003%	0.01 ppm	0.01 ppm	0.000132 ppm	does not have adverse reaction to liver and bone marrow	–
[H]/N=C(/N)N[C@H]1[C@H](O)[C@@H](O)[C@H](O[C@@H]2O[C@@H](C)[C@](O)(C=O)[C@H]2O[C@@H]2O[C@@H](CO)[C@H](O)[C@@H](O)[C@@H]2NC)[C@@H](N/C(N)=N\[H])[C@@H]1O [streptomycin]	–	–	–	–	–	–	–	–	–	10 ppm
